Reference: patent US20030199449A1, “Combination of ablation and controlled drug delivery for the treatment of cancer” (priority 2002, published 2003)

Tests used:
[1] = In-vitro release of 5-FU from poly(CPP:SA) implants; format: physicochemical; settings: 37° C., 120 rpm
Method: The drug 5-fluorouracil was analyzed by HPLC using a Regis C-18 reverse phase column. The mobile phase was deionized water at a flow rate of 0.6 ml/min and the injection volume was10 μl. The detector was set to monitor 266 nm. Calibration standards for the method were prepared as follows: A mass of 13 mg of 5-FU was dissolved in deionized water in a 50 ml volumetric flask to make a 2.00 mM stock solution. Sequential dilutions of the stock solution give standard solutions of 1.00, 0.200, 0.0500, 0.0100 and 0.00100 mM, respectively. The standards for the metabolite 5-FUR were similarly prepared at the concentrations of 2.00, 1.00, 0.200, 0.0500, 0.0100 and 0.00100 mM, respectively. The HPLC peak area of 5-FU and 5-FUR varied linearly with concentrations in the standard test range of 0.001-2 mM.
To measure in-vitro drug release of 5-F U from the implants, solid samples were pre-weighed and placed in a sterile 50-ml conical tubes filled with 20 ml of either phosphate buffered saline (PBS) or fetal bovine serum (FBS). The tubes were placed on the Gyromax 929 shaker adjusted to 37° C. and 120 rpm. Periodically, 0.1 ml of the solutions was transferred into a vial and diluted 20 times with deionized water. Aliquots of 0.1 ml of fresh PBS or FBS was added to the conical tubes each time to maintain a constant volume. […]

in vivo = settings: RF ablated liver; for concentration at 24 h: male, Sprague Dawley, rat, in vivo, 5-FU concentration in liver tissue
Description: The medial lobe of each liver was exposed through a small midline incision.
For the ablation procedure, the livers were placed on a wire mesh grounding pad and a saline soaked sponge. Ablation was accomplished using a 200-W radiofrequency generator (model CTRF-A, Radionics, Burlington, Mass.) using a 19-gauge needle electrode (model PE-D(10)(2) Radionics , Burlington, Mass.). Ablation was initiated by inserting the needle electrode into a needle tract made with a 23-gauge needle in the center of the lobe. The electrode was inserted to a depth of approximately 8-mm. The hepatic tissue exposed to the radiofrequency current was raised to a temperature of 90° C. for 3 min. […] After the electrode was removed, a 5-FU rod was placed in the probe tract and a fat pad was sewn over the top.

VX-2 tumor = experiment: 5-FU rods plus radio-frequency ablation in VX-2 tumors in the liver of rabbits, tumor volume; format: in vivo, New Zealand white rabbits
Method: (§1) Male New Zealand white rabbits (−3 kg) were used and were cared for in accordance with the Case Western Reserve University animal research center regulations. The rabbits were anesthetized using a combination of xylazine (5 mg/kg body weight BW) and ketamine (50 mg/kg BW), acepromazine (2 mg/kg), and atropine (0.2 mg/kg) given by i.m. injection. The abdomen was shaved and cleaned with povidone-iodine solution (Betadine) and 0.5 ml of Marcaine was administered into the skin at the incision site. A small midline incision was made and the medial lobe of the liver was exposed and exteriorized. The capsule of the medial lobe was punctured with a scalpel blade and a small piece of VX-2 tumor (1 mm^3), which was propagated in another rabbit and stored in liquid nitrogen for later use, was inserted into the liver parenchyma. A small piece of fat was sutured over the implant site. The abdominal muscles were closed with suture and the skin was closed with subcutaneous hidden sutures. During the recovery period, all animals received buprenophrine (Buprenex, 0.5 mg/kg, i.m.), soon after surgery and once again 24 hrs later for pain. If the animals were later perceived to be in pain, additional buprenophrine was given as needed. The rabbits also received a subcutaneous injection of 25 ml of 0.9% saline during recovery and 24 hrs later.
Fourteen days after tumor implantation, the rabbits were anesthetized again using the protocol given above. The medial lobe of the liver was exteriorized and examined for tumor growth. The size of the tumor was approximately 0.5-1.0 cm in diameter and extended into the liver parenchyma. Before radio frequency ablation, a grounding pad was placed under the exteriorized medial lobe of the liver. […]
Tumor volumes after 28 days of growth, calculated from the digital photographs as well as the integration of the CT slices though the tumors of each rabbit, are given in the table below: […]

[2] = Body weight change after RFA plus 5-FU rods in VX-2 tumor rabbits; format: in vivo, New Zealand white rabbits; settings: RFA plus 5-FU subgroup, last 14 days following RFA
Method: as §1, with “later. […]” for “later.”

neoplastic tissue = settings: reported; cited from earlier work
[3] = Local drug concentration distribution in normal (unablated) rat liver after implantation of 5-FU rod; settings: 24 h, insertion point vs periphery
[4] = ablation + three 5-FU rods at day 14, after 28 days of growth, N = 4

Row | Compound | time to release 75% of the 5-FU from implant ([1]; FBS) [days] | time to release 75% of the 5-FU from implant ([1]; PBS) [days] | concentration at 24 h (in vivo; between 6 and 18 mm away from the ablation center) [ng/g] | concentration at 24 h (in vivo; within 24 h, immediate vicinity of the ablation site (~6 mm radius)) [ng/g] | reduction in tumor size (VX-2 tumor; ablation + local sustained release 5-FU vs ablation only) [%] | Tumor Volumes, mean (1 SD), CT Scan (VX-2 tumor; [4]) | Tumor Volumes, mean (1 SD), Digital Photography (VX-2 tumor; [4]) | increase in body weight [2] [%] | level in neoplastic tissue sufficient for a clinical effect (neoplastic tissue) [µg/g] | spatial distribution in normal (unablated) liver [3] | spatial distribution in ablated liver (in vivo; 5-FU rod in probe tract, 24 h and 48 h)
1 | O=c1[nH]cc(F)c(=O)[nH]1 [5-FU, 5-fluorouracil] | 2 | 9 | ~12000 | ≤ 41000 | ~50 | 1.71 (0.56) cm^3 | 1.24 (0.55) cm^3 | 2 | 0.05 | essentially the same throughout the whole liver | 
2 | O=c1[nH]c(=O)n([C@H]2C[C@H](O)[C@@H](CO)O2)cc1F [5-FUR, 5-floxuridine] |  |  |  |  |  |  |  |  |  |  | contains less 5-FUR than that further away from the ablation site
